# From patent publication US20230242915A1, “SMALL INTERFERING DEOXYRIBONUCLEIC ACID (SIDNA) AGAINST METALLO-BETA LACTAMASE GENE” (priority 2021, published 2023)
# {FAM} = 6-FAM fluorescein dye; {TAMRA} = TAMRA dye
# How the values were obtained:
# blaIMP-1 gene = assay: blaIMP-1 mRNA level by real time RT-PCR in Pseudomonas aeruginosa transformed with siDNA; type: cell-based; settings: for Fold change of blaIMP-1 mRNA: 2-ΔΔCt, untreated = about 1
# Method: In this example, the synthesized siDNA in “Example 1” (comprising exemplary sense and antisense strands set forth in SEQ ID NO: 1 and 2, respectively) was cloned into Pseudomonas aeruginosa bacteria harboring an exemplary blaIMP-1 gene (imipenem/meropenem resistance gene). To this end, first, competent Pseudomonas aeruginosa was prepared and stored at −70° C. to be used in further experiments. Competent cells may refer to microbial cells capable of taking up foreign nucleic acid molecules from their surroundings through a process known as transformation. In order to transfer/clone the prepared siDNA into the competent Pseudomonas aeruginosa bacteria, 100 μL of an exemplary siDNA (either being coated with chitosan polymer or being bare—i.e., being uncoated) with a concentration of about 1% w/v was added to 60 μL of the competent Pseudomonas aeruginosa culture in Lysogeny Broth (LB) medium, gently mixed, and kept at 0° C. for 45 min. Then, the mixture of an exemplary siDNA (either being bare or coated with chitosan polymer) with the culture of competent Pseudomonas aeruginosa was incubated at 37° C., for 20 sec, and immediately placed on ice. Then, 800 μL of Super Optimal broth (SOC) medium was added to the mixture of an exemplary siDNA (either being bare or coated with chitosan polymer) with the culture of competent Pseudomonas aeruginosa and incubated at 37° C., in a shaker incubator, for 24-30 h.
# In this example, the effect of an exemplary siDNA—which was cloned into Pseudomonas aeruginosa bacteria in “Example 2”—on the expression of an exemplary blaIMP-1 gene was evaluated. In other words, the level of blaIMP-1 mRNA (messenger RNA) was measured in the transformed Pseudomonas aeruginosa bacteria with an exemplary siDNA in “Example 2”. For this purpose, the total RNA of an exemplary transformed Pseudomonas aeruginosa and an exemplary untreated Pseudomonas aeruginosa (as negative control) was extracted using a commercial RNA extraction kit, followed by conducting a real time RT-PCR (reverse transcriptase polymerase chain reaction) to determine the level of blaIMP-1 mRNA. In this example, 2-ΔΔCt method was used to determine differences in normalized expression of an exemplary blaIMP-1 gene (at transcription level) induced by an exemplary siDNA. FIG. 2 illustrates RNA expression profile 200 in an exemplary transformed Pseudomonas aeruginosa with an exemplary siDNA (measured by real time RT-PCR), consistent with one or more exemplary embodiments of the present disclosure. As shown in RNA expression profile 200, Group A refers to an exemplary transformed Pseudomonas aeruginosa bacteria grown for 4 h in the presence of imipenem, Group B refers to an exemplary transformed Pseudomonas aeruginosa bacteria grown for 18 h in the presence of imipenem, and Group C refers to an exemplary transformed Pseudomonas aeruginosa bacteria grown for 36 h in the presence of imipenem. […] Fold change of an exemplary blaIMP-1 mRNA in untreated Pseudomonas aeruginosa, Group A, Group B, and Group C—shown in RNA expression profile 200—were about 1, 0.088, 0.020, and 0.27, respectively.
# [1] = system: Pseudomonas aeruginosa harboring blaIMP-1 gene; assay: imipenem MIC assay (broth dilution) on transformed Pseudomonas aeruginosa; type: cell-based
# Method: In this example, the synthesized siDNA in “Example 1” (comprising exemplary sense and antisense strands set forth in SEQ ID NO: 1 and 2, respectively) was cloned into Pseudomonas aeruginosa bacteria harboring an exemplary blaIMP-1 gene (imipenem/meropenem resistance gene). To this end, first, competent Pseudomonas aeruginosa was prepared and stored at −70° C. to be used in further experiments. Competent cells may refer to microbial cells capable of taking up foreign nucleic acid molecules from their surroundings through a process known as transformation. In order to transfer/clone the prepared siDNA into the competent Pseudomonas aeruginosa bacteria, 100 μL of an exemplary siDNA (either being coated with chitosan polymer or being bare—i.e., being uncoated) with a concentration of about 1% w/v was added to 60 μL of the competent Pseudomonas aeruginosa culture in Lysogeny Broth (LB) medium, gently mixed, and kept at 0° C. for 45 min. Then, the mixture of an exemplary siDNA (either being bare or coated with chitosan polymer) with the culture of competent Pseudomonas aeruginosa was incubated at 37° C., for 20 sec, and immediately placed on ice. […]
# On the other hand, to further confirm success of an exemplary siDNA in silencing an exemplary blaIMP-1 gene in Pseudomonas aeruginosa, minimum inhibitory concentration (MIC) of imipenem was determined in an exemplary transformed Pseudomonas aeruginosa. To this end, MICs of imipenem that may inhibit the growth of an exemplary transformed Pseudomonas aeruginosa (with an exemplary siDNA) was determined after 1-4 h, 2-18 h, and 3-36 h, by broth dilution method performed in a 96-well microtiter plate. […]
# To conduct an exemplary MIC assay, bacterial culture grown to log phase was adjusted to about 5×10^5 (cells/mL) in Muller-Hinton broth. Then, the antimicrobial effect of imipenem on an exemplary transformed Pseudomonas aeruginosa and an exemplary untreated Pseudomonas aeruginosa was determined by measuring turbidity of bacterial growth in each well, using a microtiter plate reader. […]
# [2] = system: imipenem-resistant Pseudomonas aeruginosa; assay: chronic Pseudomonas aeruginosa lung infection model, lung histology; type: in vivo; settings: infected mice, imipenem in combination with siDNA (with chitosan), 3 days of treatment; compared with FIG. 5A mouse
# Method: In this example, the effect of an exemplary siDNA on an exemplary imipenem-resistant Pseudomonas aeruginosa was assessed in 40 mice with chronic Pseudomonas aeruginosa lung infection. For this purpose, a 1% w/v concentration of chitosan polymer was prepared, followed by preparing two different ratios of chitosan 1% w/v to an exemplary siDNA—in phosphate buffered saline (PBS)—including an exemplary 1:1 ration and an exemplary 0.5:1 ratio.
# A chronic Pseudomonas aeruginosa lung infection model (using imipenem-resistant Pseudomonas aeruginosa) was established in 40 mice (25-30 g). Exemplary mice were randomly divided into three groups (each group comprising 10 mice) including: i) an exemplary control group that only received imipenem after acquiring chronic infection, ii) an exemplary first group that received imipenem in combination with an exemplary siDNA (ratio 0.5:1 of chitosan 1% w/v to an exemplary siDNA) after acquiring chronic infection, and iii) an exemplary second group that received imipenem in combination with an exemplary siDNA (ratio 1:1 of chitosan 1% w/v to an exemplary siDNA) after acquiring chronic infection. […] The level of tissue damage in an exemplary control group, first group, and second group was observed and analyzed by light microscopy. […]
substance,measurement,setting,value
"siDNA: Annealed duplex of sense strand SEQ ID NO: 1 and antisense strand SEQ ID NO: 2, each 5′ 6-FAM and 3′ TAMARA, targeting blaIMP-1 gene (sense GCCGACATCGCCTTCGGCGTTTATGATT; antisense AACGCGAGAAAGTATGAACCTAGCACTT; DNA, 5' {FAM}, 3' {TAMRA}, backbone and methylation of C not given here)",decrease of gene expression compared to untreated Pseudomonas aeruginosa,"blaIMP-1 gene; Group A, 4 h in the presence of imipenem",11.36 folds
same,Fold change of blaIMP-1 mRNA,blaIMP-1 gene; Group A: transformed bacteria grown 4 h in the presence of imipenem,~0.088
same,decrease of gene expression compared to untreated Pseudomonas aeruginosa,"blaIMP-1 gene; Group B, 18 h in the presence of imipenem",50 folds
same,Fold change of blaIMP-1 mRNA,blaIMP-1 gene; Group B: transformed bacteria grown 18 h in the presence of imipenem,~0.020
same,decrease of gene expression compared to untreated Pseudomonas aeruginosa,"blaIMP-1 gene; Group C, 36 h in the presence of imipenem",3.7 folds
same,Fold change of blaIMP-1 mRNA,blaIMP-1 gene; Group C: transformed bacteria grown 36 h in the presence of imipenem,~0.27
same,MIC of imipenem in siDNA-transformed Pseudomonas aeruginosa,"[1]; Group A, 4 h, Muller-Hinton broth",2 µg/mL
same,MIC of imipenem in siDNA-transformed Pseudomonas aeruginosa,"[1]; Group B, 18 h, Muller-Hinton broth",4 µg/mL
same,MIC of imipenem in siDNA-transformed Pseudomonas aeruginosa,"[1]; Group C, 36 h, similar to untreated negative control",32 µg/mL
same,edema and tissue damage in lung tissue (hematoxylin and eosin histology),[2],significantly less edema and tissue damage
